One series deals with THP-1 cells. Briefly: Cytotoxicity assay on PMA-differentiated THP-1 macrophage-like cells. It is filed as cell-based, human. Conditions: CC50 in THP-1 / IC50 against L. infantum promastigotes. The method, then: (§1) The human monocytic cell line THP-1 (ECACC 88081201) was cultured in RPMI-1640 medium supplemented with 10% heat-inactivated fetal bovine serum (FBS), 2 mM L-glutamine, 10 g/L non-essential amino acid, 1 mM sodium pyruvate, 100 μg/mL streptomycin, […]. Cells were maintained in a humidified incubator at 37°C and 5% CO2. All cell culture reagents were purchased from Sigma-Aldrich (St. Louis, MO, USA).
(§2) The cytotoxicity of bisindole derivative compounds was evaluated on THP-1 cells. Briefly, cells were resuspended at a density of 5×10^6 cells/mL, 100 μL/well were seeded in a 96-well plate and treated for 48 h with 20 ng/mL phorbol myristic acid (PMA) to induce differentiation into macrophages-like cells. After cell adhesion, selected compounds were used at 4, 20, and 100 μM, for 72 h at 37°C. […] Compounds with cytotoxicity higher than 20 μM were further tested to determine CC50 with scalar dilutions 1:2 or 2:3 (from 100 to 3.12 μM).
(§3) The negative control (not-treated cells) and the anti-leishmanial drug miltefosine were included in each experiment. Each condition was carried out in duplicate. To evaluate the cytotoxicity of the selected compounds, the CellTiter 96H Aqueous Non-Radioactive Cell Proliferation Assay (Promega) was performed as described above. For each compound, the SI was calculated as the ratio between cytotoxicity in THP-1 and activity against L. infantum promastigotes.

Experiment in series [1]: as above
Format: cell-based, human. Conditions: human, PMA-differentiated THP-1 macrophage-like cells; 72 h, scalar dilutions from 100 to 3.12 μM; mean and 95% CI. The method, then:
as §1, §2, §3

Series [2] relates to L. infantum MHOM/TN/80/IPT1 promastigotes. Nature of the series: L. infantum promastigotes viability assay. Format: cell-based. The settings on record: 72 h; for IC50: scalar dilutions from 20 to 0.31 μM, mean and 95% CI; for inhibition at 20 µM: single dose 20 μM, 26°C. Here is the method:
The reference strain L. infantum MHOM/TN/80/IPT1 (WHO international reference strain) was purchased from ATCC (ATCC® 50134™) and cultured in Evans’s Modified Tobie Medium (EMTM) at 26–28°C. During the treatment with bisindole derivative compounds, the parasites were maintained in RPMI-PY medium as described previously
The activity of bisindole derivatives was first evaluated on late log/stationary phase L. infantum promastigotes resuspended in 96-well plates (100 μL/well) in complete RPMI-PY medium with a density of 2.5×10^6 parasites/mL. The anti-parasitic activity was initially investigated with the single dose of 20 μM of each compound for 72 h at 26°C. […] As positive control, the anti-leishmanial drug miltefosine (Sigma-Aldrich, Milan, Italy) was included. Each condition was carried out in duplicate. The promastigotes viability was evaluated using the CellTiter 96H aqueous non-radioactive cell proliferation assay (Promega, Madison, Wisconsin, USA), as previously reported. The efficacy of selected compounds was evaluated by determining the IC50 values using the non-linear regression curves in GraphPad Prism 8.0 (GraphPad Software, Inc., San Diego, CA, USA). The equation used for data fitting was Y = 100/(1+10^((LogIC50-X)*HillSlope)) (hillslope not constrained), where X is equal to the log of concentration and Y is the normalized response.

In a further series the test system is infected THP-1 cells. Nature of the series: Cytotoxic effect on infected THP-1 cells (cell count, Hoechst staining). It is filed as cell-based, human. Conditions: 72 h, 1.25-20 μM.
The subject of series [3] is L. infantum intracellular amastigotes. Briefly: Anti-amastigote assay on infected THP-1 cells. Conditions: Leishmania infantum; THP-1 cells infected 24 h, 72 h treatment, 20 to 0.31 μM; read-out: IC50 against L. infantum intracellular amastigotes. It is filed as cell-based. Here is the method:
THP-1 cells were plated in a 96-well plate and differentiated as described above. […] Briefly, Leishmania cells were washed twice with PBS to remove any trace of serum and resuspended 1×10^7/mL PBS. […] Labeled parasites were washed three times with complete RPMI medium and used for the infection. […] To analyze the infection, cells were washed, formaldehyde/methanol fixed, stained with Hoechst dye, and observed with a fluorescence microscope. Images were acquired (at 5× magnification) at 494 nm excitation/521 nm emission (green) and 350 nm excitation/460 emission (blue) for CFSE and Hoechst staining, respectively. Automated cell counting of single-color images was performed with ImageJ software to monitor the infection: the promastigotes count on each green image was normalized with the cell count on the corresponding blue image. […] To calculate IC50, the percentage values of Leishmania cell count normalized to THP-1 cells were plotted against the log10 concentration (μM) of each compound.

Entries after “also recorded” stand apart in the source; their conditions may differ.

Consider `NCC(c1c[nH]c2cc(F)ccc12)c1c[nH]c2cc(F)ccc12` [1b], for which the “SI (CC50/IC50)” value with THP-1 cells stood at 4.7. This compound also yielded a CC50 at 72 h in series [1] of 40.4 µM. Moreover, in series [2] (Leishmania infantum), the IC50 turned out to be 8.6 µM and the inhibition at 20 µM was determined as 89.1%.

Take `O=C(NCC(c1c[nH]c2cc(Br)ccc12)c1c[nH]c2cc(Br)ccc12)c1ccco1` [3f]: the inhibition at 20 µM in series [2] (Leishmania infantum) was found to be 97.2%.

In the case of `O=S(=O)(NCC(c1c[nH]c2cc(Br)ccc12)c1c[nH]c2cc(Br)ccc12)c1cccs1` [4c], the inhibition at 20 µM in series [2] (Leishmania infantum) is 97.6%.

As for `NCC(c1c[nH]c2cc(Cl)ccc12)c1c[nH]c2cc(Cl)ccc12` [1c], the “SI (CC50/IC50)” value in the series on THP-1 cells was found to be 5.3. Besides, the CC50 at 72 h in series [1] is 39.4 µM. Further, in series [2] (Leishmania infantum), the IC50 is 7.4 µM and the inhibition at 20 µM was 95.6%.

Consider `O=C(NCC(c1c[nH]c2cc(Br)ccc12)c1c[nH]c2cc(Br)ccc12)c1ccc([N+](=O)[O-])cc1` [3d], for which the inhibition at 20 µM in series [2] (Leishmania infantum) turned out to be 90.4%.

As to `Cn1cc(C(CN)c2cn(C)c3ccccc23)c2ccccc21` [1h], the “cytotoxicity in the infection model” value in the series on infected THP-1 cells is “better toxicity profile than the commercial drug miltefosine; also recorded: better toxicity profile compared to the commercial drug miltefosine”. Moreover, the “SI (CC50/IC50)” value in the series on THP-1 cells amounted to 10.1. The compound further displayed a CC50 at 72 h in series [1] of 41.6 µM. Also, the IC50 in series [3] amounted to 11.1 µM. Besides, in series [2] (Leishmania infantum), the IC50 was found to be 4.1 µM and the inhibition at 20 µM was found to be 98%.

As for `Cn1cc(C(CN)c2cn(C)c3cc(Br)ccc23)c2ccc(Br)cc21` [1i], in series [2] (Leishmania infantum), the inhibition at 20 µM is 98%.

Turning to `O=C(NCC(c1c[nH]c2cc(Br)ccc12)c1c[nH]c2cc(Br)ccc12)c1ccc(Cl)cc1` [3c], the inhibition at 20 µM in series [2] (Leishmania infantum) stood at 97.4%.

For the compound `O=[N+]([O-])c1ccc(CNCC(c2c[nH]c3cc(Br)ccc23)c2c[nH]c3cc(Br)ccc23)cc1` [2d], the “SI (CC50/IC50)” value in the series on THP-1 cells is given as 3.4. For the same compound, the CC50 at 72 h in series [1] turned out to be 13.2 µM. In addition, in series [2] (Leishmania infantum), the 50% inhibitory concentration (IC50) amounted to 3.9 µM and the inhibition at 20 µM worked out at 95%.

On to `Cc1ccc(CNCC(c2c[nH]c3cc(Br)ccc23)c2c[nH]c3cc(Br)ccc23)cc1` [2e], for which the inhibition at 20 µM in series [2] (Leishmania infantum) is 95.8%.

As for `O=C(NCC(c1c[nH]c2cc(Br)ccc12)c1c[nH]c2cc(Br)ccc12)c1ccc(F)cc1` [3b], in the series on THP-1 cells, the “SI (CC50/IC50)” value came out at 2.3. This compound also showed a CC50 at 72 h in series [1] of 21.9 µM. Also, in series [2] (Leishmania infantum), the IC50 came to 9.5 µM and the inhibition at 20 µM is 97.7%.

On to `CC(C)CNCC(c1c[nH]c2cc(Br)ccc12)c1c[nH]c2cc(Br)ccc12` [2a], for which the inhibition at 20 µM in series [2] (Leishmania infantum) was determined as 97.8%.

On to `COc1ccc(C(=O)NCC(c2c[nH]c3cc(Br)ccc23)c2c[nH]c3cc(Br)ccc23)cc1` [3e], for which the 50% inhibitory concentration (IC50) in series [2] was 12.2 µM; in series [2] (Leishmania infantum), greater than 10 µM. The inhibition at 20 µM in series [2] (Leishmania infantum) came out at 95.2%.

For `COC(=O)c1ccc2c(C(CN)c3c[nH]c4cc(C(=O)OC)ccc34)c[nH]c2c1` [1f], the “SI (CC50/IC50)” value with THP-1 cells is 4.9. This compound also returned a CC50 at 72 h in series [1] of 40.1 µM. Besides, in series [2] (Leishmania infantum), the IC50 is 8.2 µM and the inhibition at 20 µM is 89.7%.

Turning to `Clc1ccc(CNCC(c2c[nH]c3cc(Br)ccc23)c2c[nH]c3cc(Br)ccc23)cc1` [2c], the “cytotoxicity in the infection model” value with infected THP-1 cells is listed as “high cellular toxicity”. Besides, the “SI (CC50/IC50)” value with THP-1 cells is 4.3. Besides, the CC50 at 72 h in series [1] was 11.7 µM. Further, the IC50 in series [3] turned out to be 6.8 µM. Further, in series [2] (Leishmania infantum), the IC50 came to 2.7 µM and the inhibition at 20 µM worked out at 98.1%.

For `Fc1ccc(CNCC(c2c[nH]c3cc(Br)ccc23)c2c[nH]c3cc(Br)ccc23)cc1` [2b], in series [2] (Leishmania infantum), the inhibition at 20 µM was determined as 98.2%.

Consider `NCC(c1c[nH]c2ccccc12)c1c[nH]c2ccccc12` [1a], for which half-maximal inhibition in series [2] (IC50) required 12.9 µM. Further, in series [2] (Leishmania infantum), the IC50 is greater than 10 µM and the inhibition at 20 µM was determined as 82.3%.

On to `N#Cc1ccc2[nH]cc(C(CN)c3c[nH]c4ccc(C#N)cc34)c2c1` [1g], for which the inhibition at 20 µM in series [2] (Leishmania infantum) was -1.6%.

On to `Cc1ccc(S(=O)(=O)NCC(c2c[nH]c3cc(Br)ccc23)c2c[nH]c3cc(Br)ccc23)cc1` [4a], for which, in the series on THP-1 cells, the “SI (CC50/IC50)” value is reported as 2.1. In series [1], this compound came in with a CC50 at 72 h of 20.2 µM. In series [2] (Leishmania infantum), half-maximal inhibition (IC50) required 9.8 µM and the inhibition at 20 µM is 96.9%.

`CC(C)C(=O)NCC(c1c[nH]c2cc(Br)ccc12)c1c[nH]c2cc(Br)ccc12` [3a]: the inhibition at 20 µM in series [2] (Leishmania infantum) was found to be 96.7%.

Regarding `O=C(NCC(c1c[nH]c2cc(Br)ccc12)c1c[nH]c2cc(Br)ccc12)c1cccs1` [3g], the inhibition at 20 µM in series [2] (Leishmania infantum) was 96.9%.

On to `Cc1ccc(S(=O)(=O)NCC(c2cn(C)c3ccccc23)c2cn(C)c3ccccc23)cc1` [4b], for which, in series [2] (Leishmania infantum), the inhibition at 20 µM came out at 45.7%.

`Brc1ccc2c(C(CNCc3ccco3)c3c[nH]c4cc(Br)ccc34)c[nH]c2c1` [2f]: the inhibition at 20 µM in series [2] (Leishmania infantum) was found to be 95.2%.

Consider `NCC(c1c[nH]c2cc(Br)ccc12)c1c[nH]c2cc(Br)ccc12` [1d, 2,2-bis(6-bromo-1H-indol-3-yl)ethanamine], for which the inhibition at 20 µM in series [2] (Leishmania infantum) came to 96.8%.

For the compound `Brc1ccc2c(C(CNCc3cccs3)c3c[nH]c4cc(Br)ccc34)c[nH]c2c1` [2g], the inhibition at 20 µM in series [2] (Leishmania infantum) was 95.5%.

For `NCC(c1c[nH]c2ccc(I)cc12)c1c[nH]c2ccc(I)cc12` [1e], the inhibition at 20 µM in series [2] (Leishmania infantum) came to 97.8%.

Broadly, the CC50 is the concentration at which the toxic effect on the cells reaches its halfway point. For orientation: IC50 means the concentration that inhibits the measured activity by half. What is called inhibition is the change of the read-out against control, counted positive when it falls.

For the origin of these results see PMC11175440, “Exploring hydrophilic 2,2-di(indol-3-yl)ethanamine derivatives against Leishmania infantum” (PLOS ONE, 2024).
